Measured values reported in US20240252454A1, “COMPOSITION COMPRISING AN INHIBITOR OF MITOCHONDRIAL TRANSCRIPTION” (LEAD DISCOVERY CENTER GMBH, priority 2021, published 2024).
Where two headings read alike, the source gives them in different places.

Legend:
Test in all cases: CellTiter-GLO (CTG) assay, combinatorial matrix
Type in all cases: cell-based
A2780 = details: for combination of IMT and PARPi compared to treatment with just the PARPi alone: A2780, CTG matrix, 30 μM to 10 nM IMT (3S)-1-[(2R)-2-[4-(2-chloro-4-fluoro-phenyl)-2-oxo-chromen-7-yl]oxypropanoyl]piperidine-3-carboxylic acid + 30 μM to 40 nM of the labelled PARPi
Experimental: (§1) To determine the in vitro cellular viability, cellular ATP concentrations were measured using a luminescence-based homogenous assay format, as described here. […] Optimal cell density for each cell line was determined to guarantee linearity. For viability assays with compounds, cells were then seeded at a density of 200 to 1000 per well in 25 μl in 384-well plates (Greiner Bio-One, Frickenhausen, Germany). After overnight incubation at 37° C./5% CO2, 25 nl or 75 nl compounds were added to each sample well by using BIOMEK FXP Laboratory Automation Workstation (Beckman Coulter, USA). Wells with cells and 0.1% or 0.3% DMSO in culture medium were used as positive controls, wells with cells and 10 μM staurosporine (Selleck Chemicals, Huston, USA) in culture medium were used as negative controls. Upon incubation with compounds for 72 h at 37° C./5% CO2 25 μl Cell Titer Glo reagent (Promega, Madison, USA, European Pat. No. 1131441, U.S. Pat. Nos. 7,083,911, 7,452,663 and 7,732,128) 1:2 diluted with cell culture medium) was added to each well to determine cell viability. 384well-plates were placed for 2 min on an orbital microplate shaker and incubated for further 10 min at room temperature resulting in a stabilization of light signal. Luminescence was measured by Envision Plate Reader (Perkin Elmer, USA).
(§2) All in vitro cell culture experiments were carried out under near physiological glucose concentrations (5 mM) in at least two independent replicates.

[1] = system: primary human blood cells (PBMC); details: Homo sapiens, PBMC, hPBMCs, 72 hours, IMT at the μM of c0, untreated control =100%, read-out: Measured residual activity (cellular ATP content)
Experimental: as §1, §2
(§3) To establish the method described, N,N-dimethyl-2-[4-(o-tolyl)-2-oxo-chromen-7-yl]oxy-propanamide, (3S)-1-[2-[4-(2-chloro-4-fluoro-phenyl)-2-oxo-chromen-7-yl]oxypropanoyl]piperidine-3-carboxylic acid, (3S)-1-[(2R)-2-[4-(2-chloro-4-fluoro-phenyl)-2-oxo-chromen-7-yl]oxypropanoyl]piperidine-3-carboxylic acid and BAY-876 were first examined with regard to their effect on the cell growth of twelve different tumour cell lines and the IC50 values were determined. This initial study was followed by validation experiments in a matrix format and in the CTG assay, as described under Example 1), in two tumour cell lines from uterine and ovarian carcinoma (HEC59 and A2780), as well as in primary human blood cells (PBMC) (Table 7).
(§4) Combinations of one concentration of IMT (μM; y-axis) and 30 μM-33 nM BAY-876 (x-axis) were incubated for 72 hours with HEC59, hPBMCs or A2780 and then the cellular ATP-content was determined using the CellTiter-GLO assay format. A: Measured residual activity (%) based on an untreated control group (=100%). B: The combinatorial indices are provided, based on the reference groups treated with the corresponding concentration of only one inhibitor class, according to Berenbaum and Cou & Talalay. <1=synergism, 1-2=additivity, 2>=antagonism.

HEC59 = details: HEC59, 72 hours, IMT at the μM of c0, untreated control =100%, read-out: Measured residual activity (cellular ATP content)
Experimental: as §1, §2, §3, §4

Cc1c(NC(=O)c2cc(C(N)=O)nc3cc(F)ccc23)c(C(F)(F)F)nn1Cc1ccc(C#N)cc1 [BAY-876]
activity at 0.04 µM (A2780; Homo sapiens, A2780, 72 hours, BAY-876 0.04 μM, IMT at the μM of c0, untreated control =100%, read-out: Measured residual activity (cellular ATP content)): 88% | activity at 0.123 µM (A2780; Homo sapiens, A2780, 72 hours, BAY-876 0.123 μM, IMT at the μM of c0, untreated control =100%, read-out: Measured residual activity (cellular ATP content)): 78% | activity at […] (A2780; Homo sapiens, A2780, 72 hours, BAY-876 0.37 μM, IMT at the μM of c0, untreated control =100%, read-out: Measured residual activity (cellular ATP content)): 90% | activity at 3.33 µM (A2780; Homo sapiens, A2780, 72 hours, BAY-876 3.33 μM, IMT at the μM of c0, untreated control =100%, read-out: Measured residual activity (cellular ATP content)): 78% | activity at 10 µM (A2780; Homo sapiens, A2780, 72 hours, BAY-876 10 μM, IMT at the μM of c0, untreated control =100%, read-out: Measured residual activity (cellular ATP content)): 51% | activity at 30 µM (A2780; Homo sapiens, A2780, 72 hours, BAY-876 30 μM, IMT at the μM of c0, untreated control =100%, read-out: Measured residual activity (cellular ATP content)): 10% | activity at 0.04 µM ([1]; BAY-876 0.04 μM): 104% | activity at […] ([1]; BAY-876 0.12 μM): 109% | activity at […] ([1]; BAY-876 0.37 μM): 90% | activity at 3.33 µM ([1]; BAY-876 3.33 μM): 98% | activity at 10 µM ([1]; BAY-876 10 μM): 87% | activity at 30 µM ([1]; BAY-876 30 μM): 101% | activity at 0.041 µM (HEC59; BAY-876 0.041 μM): 74% | activity at 0.123 µM (HEC59; BAY-876 0.123 μM): 59% | activity at […] (HEC59; BAY-876 0.370 μM): 58% | activity at 1.111 µM (HEC59; BAY-876 1.111 μM): 32% | activity at […] (HEC59; BAY-876 3.3 μM): 18% | activity at 10 µM (HEC59; BAY-876 10 μM): 11% | activity at 30 µM (HEC59; BAY-876 30 μM): 8%

CNCc1ccc(-c2[nH]c3cc(F)cc4c3c2CCNC4=O)cc1 [Rucaparib]
combination of IMT and PARPi compared to treatment with just the PARPi alone (A2780): advantage of the combination | activity at 0.04 µM (A2780; Homo sapiens, A2780, 72 hours, Rucaparib 0.04 μM, IMT (3S)-1-[(2R)-2-[4-(2-chloro-4-fluoro-phenyl)-2-oxo-chromen-7-yl]oxypropanoyl]piperidine-3-carboxylic acid at the μM of c0, untreated control =100%, read-out: Measured residual activity (cellular ATP content)): 90% | activity at 0.1 µM (A2780; Homo sapiens, A2780, 72 hours, Rucaparib 0.1 μM, IMT (3S)-1-[(2R)-2-[4-(2-chloro-4-fluoro-phenyl)-2-oxo-chromen-7-yl]oxypropanoyl]piperidine-3-carboxylic acid at the μM of c0, untreated control =100%, read-out: Measured residual activity (cellular ATP content)): 70% | activity at 0.4 µM (A2780; Homo sapiens, A2780, 72 hours, Rucaparib 0.4 μM, IMT (3S)-1-[(2R)-2-[4-(2-chloro-4-fluoro-phenyl)-2-oxo-chromen-7-yl]oxypropanoyl]piperidine-3-carboxylic acid at the μM of c0, untreated control =100%, read-out: Measured residual activity (cellular ATP content)): 42% | activity at 1.1 µM (A2780; Homo sapiens, A2780, 72 hours, Rucaparib 1.1 μM, IMT (3S)-1-[(2R)-2-[4-(2-chloro-4-fluoro-phenyl)-2-oxo-chromen-7-yl]oxypropanoyl]piperidine-3-carboxylic acid at the μM of c0, untreated control =100%, read-out: Measured residual activity (cellular ATP content)): 21% | activity at […] (A2780; Homo sapiens, A2780, 72 hours, Rucaparib 3.3 μM, IMT (3S)-1-[(2R)-2-[4-(2-chloro-4-fluoro-phenyl)-2-oxo-chromen-7-yl]oxypropanoyl]piperidine-3-carboxylic acid at the μM of c0, untreated control =100%, read-out: Measured residual activity (cellular ATP content)): 6% | activity at 10 µM (A2780; Homo sapiens, A2780, 72 hours, Rucaparib 10 μM, IMT (3S)-1-[(2R)-2-[4-(2-chloro-4-fluoro-phenyl)-2-oxo-chromen-7-yl]oxypropanoyl]piperidine-3-carboxylic acid at the μM of c0, untreated control =100%, read-out: Measured residual activity (cellular ATP content)): 0% | activity at 30 µM (A2780; Homo sapiens, A2780, 72 hours, Rucaparib 30 μM, IMT (3S)-1-[(2R)-2-[4-(2-chloro-4-fluoro-phenyl)-2-oxo-chromen-7-yl]oxypropanoyl]piperidine-3-carboxylic acid at the μM of c0, untreated control =100%, read-out: Measured residual activity (cellular ATP content)): 0%

C[C@]1(c2nc3c(C(N)=O)cccc3[nH]2)CCCN1 [Veliparib]
combination of IMT and PARPi compared to treatment with just the PARPi alone (A2780): advantage of the combination | activity at 0.04 µM (A2780; Homo sapiens, A2780, 72 hours, Veliparib 0.04 μM, IMT (3S)-1-[(2R)-2-[4-(2-chloro-4-fluoro-phenyl)-2-oxo-chromen-7-yl]oxypropanoyl]piperidine-3-carboxylic acid at the μM of c0, untreated control =100%, read-out: Measured residual activity (cellular ATP content)): 99% | activity at 0.1 µM (A2780; Homo sapiens, A2780, 72 hours, Veliparib 0.1 μM, IMT (3S)-1-[(2R)-2-[4-(2-chloro-4-fluoro-phenyl)-2-oxo-chromen-7-yl]oxypropanoyl]piperidine-3-carboxylic acid at the μM of c0, untreated control =100%, read-out: Measured residual activity (cellular ATP content)): 99% | activity at 0.4 µM (A2780; Homo sapiens, A2780, 72 hours, Veliparib 0.4 μM, IMT (3S)-1-[(2R)-2-[4-(2-chloro-4-fluoro-phenyl)-2-oxo-chromen-7-yl]oxypropanoyl]piperidine-3-carboxylic acid at the μM of c0, untreated control =100%, read-out: Measured residual activity (cellular ATP content)): 97% | activity at 1.1 µM (A2780; Homo sapiens, A2780, 72 hours, Veliparib 1.1 μM, IMT (3S)-1-[(2R)-2-[4-(2-chloro-4-fluoro-phenyl)-2-oxo-chromen-7-yl]oxypropanoyl]piperidine-3-carboxylic acid at the μM of c0, untreated control =100%, read-out: Measured residual activity (cellular ATP content)): 89% | activity at […] (A2780; Homo sapiens, A2780, 72 hours, Veliparib 3.3 μM, IMT (3S)-1-[(2R)-2-[4-(2-chloro-4-fluoro-phenyl)-2-oxo-chromen-7-yl]oxypropanoyl]piperidine-3-carboxylic acid at the μM of c0, untreated control =100%, read-out: Measured residual activity (cellular ATP content)): 85% | activity at 10 µM (A2780; Homo sapiens, A2780, 72 hours, Veliparib 10 μM, IMT (3S)-1-[(2R)-2-[4-(2-chloro-4-fluoro-phenyl)-2-oxo-chromen-7-yl]oxypropanoyl]piperidine-3-carboxylic acid at the μM of c0, untreated control =100%, read-out: Measured residual activity (cellular ATP content)): 43% | activity at 30 µM (A2780; Homo sapiens, A2780, 72 hours, Veliparib 30 μM, IMT (3S)-1-[(2R)-2-[4-(2-chloro-4-fluoro-phenyl)-2-oxo-chromen-7-yl]oxypropanoyl]piperidine-3-carboxylic acid at the μM of c0, untreated control =100%, read-out: Measured residual activity (cellular ATP content)): 6%
